Results: patent US20180250232A1, “PROCESS FOR PREPARING SPRAY DRIED SOLID DISPERSIONS OF (S)-N-(3-(6-ISOPROPOXYPYRIDIN-3-YL)-1H-INDAZOL-5-YL)-1-(2-(4-(4-(1-METHYL-1H-1,2,4-TRIAZOL-3-YL)PHENYL)-3,6-DIHYDROPYRIDIN-1(2H)-YL)-2-OXOETHYL)-3-(METHYLTHIO)PYRROLIDINE-3-CARBOXAMIDE FOR PHARMACEUTICAL PREPARATIONS” (Merck Sharp & Dohme Corp., priority 2015, published 2018)

Experiment: polymorph studies / competition slurry experiments
Assay type: physicochemical
Protocol: Preliminary polymorph screening for (S)—N-(3-(6-isopropoxypyridin-3-yl)-1H-indazol-5-yl)-1-(2-(4-(4-(1-methyl-1H-1,2,4-triazol-3-yl)phenyl)-3,6-dihydropyridin-1(2H)-yl)-2-oxoethyl)-3-(methylthio)pyrrolidine-3-carboxamide were conducted by solvent-mediated slurry experiments in 10 different solvents or solvent mixtures using the amorphous compound as the starting material.

For `CS[C@@]1(C(=O)Nc2ccc3[nH]nc(-c4ccc(OC(C)C)nc4)c3c2)CCN(CC(=O)N2CC=C(c3ccc(-c4ncn(C)n4)cc3)CC2)C1` [hydrate form 2, (S)—N-(3-(6-isopropoxypyridin-3-yl)-1H-indazol-5-yl)-1-(2-(4-(4-(1-methyl-1H-1,2,4-triazol-3-yl)phenyl)-3,6-dihydropyridin-1(2H)-yl)-2-oxoethyl)-3-(methylthio)pyrrolidine-3-carboxamide crystalline free base hydrate form 2], the “more stable form in competition slurry experiments” value (hydrate form 1 and 2 as seeds in H2O/methanol mixture (H2O activity of 0.5), room temperature and 4° C.) was “more stable form in both experiments” and the “stability of crystalline form (polymorph studies)” value (room temperature) was “most stable crystalline form at room temperature”.
